Target: T1, PPM1A (protein phosphatase magnesium-dependent 1A; PP2Cα) (Homo sapiens, UniProt P35813)
T1 sequence (P35813 2-382): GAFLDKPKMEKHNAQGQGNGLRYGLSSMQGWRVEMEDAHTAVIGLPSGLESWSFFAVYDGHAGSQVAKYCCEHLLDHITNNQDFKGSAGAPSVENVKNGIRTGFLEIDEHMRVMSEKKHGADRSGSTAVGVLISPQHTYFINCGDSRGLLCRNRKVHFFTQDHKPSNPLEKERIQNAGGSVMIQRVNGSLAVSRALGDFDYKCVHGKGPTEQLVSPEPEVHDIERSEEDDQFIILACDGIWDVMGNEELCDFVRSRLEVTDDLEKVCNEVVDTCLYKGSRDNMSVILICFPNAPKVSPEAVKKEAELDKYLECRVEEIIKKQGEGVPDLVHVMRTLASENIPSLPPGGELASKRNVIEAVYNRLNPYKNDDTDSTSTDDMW
Test: microscale thermophoresis
Type: binding

CCCCCCCCCCCCCCCCOP(=O)([O-])OCC[N+](C)(C)C [MF, Miltefosine]
Kd: 2700 nM
